{
  "source": "ChEMBL document CHEMBL5543172",
  "about": "“Novel Isoalantolactone-Based Derivatives as Potent NLRP3 Inflammasome Inhibitors: Design, Synthesis, and Biological Characterization” (J Med Chem, 2024)",
  "key": {"[1]": {"experiment": "Metabolic stability in mouse liver microsomes assessed as half life preincubated for 5 mins followed by NADPH addition and measured upto 60 mins by LC-MS/MS analysis", "assay_type": "ADME, Microsome", "conditions": "time < 65 min"}, "[2]": {"experiment": "Metabolic stability in human liver microsomes assessed as half life preincubated for 5 mins followed by NADPH addition and measured upto 60 mins by LC-MS/MS analysis", "assay_type": "ADME, Microsome", "conditions": "time < 65 min"}, "Cytochrome P450 2C9": {"target": "Cytochrome P450 2C9 (Homo sapiens, UniProt P11712)", "experiment": "Inhibition of CYP2C9 in human liver microsomes using tolbutamide as substrate preincubated for 5 mins followed by NADPH addition and measured after 30 to 60 mins by LC-MS/MS analysis", "assay_type": "ADME, Microsome"}, "Cytochrome P450 3A4": {"target": "Cytochrome P450 3A4 (Homo sapiens, UniProt P08684)", "sequence (P08684 whole entry)": "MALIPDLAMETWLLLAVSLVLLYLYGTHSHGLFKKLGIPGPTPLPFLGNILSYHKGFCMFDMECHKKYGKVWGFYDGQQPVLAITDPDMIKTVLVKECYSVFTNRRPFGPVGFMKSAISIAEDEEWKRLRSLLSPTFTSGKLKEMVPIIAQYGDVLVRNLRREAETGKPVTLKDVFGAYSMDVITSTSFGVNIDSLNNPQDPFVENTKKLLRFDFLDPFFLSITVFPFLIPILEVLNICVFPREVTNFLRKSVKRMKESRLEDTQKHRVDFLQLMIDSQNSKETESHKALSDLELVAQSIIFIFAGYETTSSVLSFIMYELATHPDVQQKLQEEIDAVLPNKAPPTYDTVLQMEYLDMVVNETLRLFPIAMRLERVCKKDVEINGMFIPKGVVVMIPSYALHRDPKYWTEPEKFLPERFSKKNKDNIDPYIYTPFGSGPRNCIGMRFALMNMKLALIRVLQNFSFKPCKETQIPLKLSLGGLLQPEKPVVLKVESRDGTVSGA", "experiment": "Inhibition of CYP3A4 in human liver microsomes using midazolam as substrate preincubated for 5 mins followed by NADPH addition and measured after 30 to 60 mins by LC-MS/MS analysis", "assay_type": "ADME, Microsome"}, "[3]": {"target": "Alpha-1A adrenergic receptor (Homo sapiens) (UniProt P35348)", "sequence (P35348 whole entry)": "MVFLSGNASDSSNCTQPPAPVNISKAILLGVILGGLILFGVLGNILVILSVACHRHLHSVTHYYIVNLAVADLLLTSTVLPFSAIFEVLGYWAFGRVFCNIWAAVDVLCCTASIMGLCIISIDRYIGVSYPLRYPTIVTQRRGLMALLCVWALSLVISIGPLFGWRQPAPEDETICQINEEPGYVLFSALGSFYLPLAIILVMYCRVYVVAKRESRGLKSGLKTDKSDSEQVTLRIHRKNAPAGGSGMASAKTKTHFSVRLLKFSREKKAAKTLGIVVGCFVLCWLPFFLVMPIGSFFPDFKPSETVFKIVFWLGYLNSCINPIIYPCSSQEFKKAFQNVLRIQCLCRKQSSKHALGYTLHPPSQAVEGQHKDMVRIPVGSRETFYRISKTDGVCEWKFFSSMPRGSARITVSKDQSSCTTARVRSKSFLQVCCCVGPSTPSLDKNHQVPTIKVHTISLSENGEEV", "experiment": "Inhibition of alpha 1A adrenergic receptor (unknown origin) at 1 uM relative to control"}, "[4]": {"target": "3',5'-cyclic-AMP phosphodiesterase 4D (Homo sapiens) (UniProt Q08499)", "experiment": "Inhibition of PDE4D2 (unknown origin) at 1 uM relative to control"}, "[5]": {"target": "Adenosine receptor A2a (Homo sapiens) (UniProt P29274)", "sequence (P29274 whole entry)": "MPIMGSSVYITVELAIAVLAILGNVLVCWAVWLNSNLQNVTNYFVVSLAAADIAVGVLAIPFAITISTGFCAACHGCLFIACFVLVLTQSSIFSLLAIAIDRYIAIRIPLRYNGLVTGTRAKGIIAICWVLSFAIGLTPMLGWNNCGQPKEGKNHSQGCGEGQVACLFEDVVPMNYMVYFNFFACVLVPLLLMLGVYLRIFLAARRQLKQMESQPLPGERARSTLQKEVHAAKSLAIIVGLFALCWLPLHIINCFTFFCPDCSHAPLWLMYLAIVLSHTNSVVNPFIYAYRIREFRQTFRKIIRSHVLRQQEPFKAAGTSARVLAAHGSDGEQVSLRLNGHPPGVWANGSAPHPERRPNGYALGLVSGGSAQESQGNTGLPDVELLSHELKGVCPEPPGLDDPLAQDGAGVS", "experiment": "Inhibition of adenosine A2A receptor (unknown origin) at 1 uM relative to control"}, "[6]": {"target": "Prostaglandin E2 receptor EP2 subtype (Homo sapiens) (UniProt P43116)", "sequence (P43116 whole entry)": "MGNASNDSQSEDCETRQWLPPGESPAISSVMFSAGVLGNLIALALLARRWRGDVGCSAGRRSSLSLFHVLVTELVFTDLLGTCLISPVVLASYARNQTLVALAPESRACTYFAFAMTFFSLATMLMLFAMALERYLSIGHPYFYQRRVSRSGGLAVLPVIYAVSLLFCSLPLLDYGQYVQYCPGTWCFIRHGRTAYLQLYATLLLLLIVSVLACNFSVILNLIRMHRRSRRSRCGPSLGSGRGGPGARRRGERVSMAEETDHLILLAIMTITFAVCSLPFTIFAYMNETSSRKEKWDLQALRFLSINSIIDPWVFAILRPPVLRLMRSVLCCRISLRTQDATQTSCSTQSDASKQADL", "experiment": "Inhibition of EP2 receptor (unknown origin) at 1 uM relative to control"}, "[7]": {"target": "Cannabinoid receptor 2 (Homo sapiens) (UniProt P34972)", "sequence (P34972 whole entry)": "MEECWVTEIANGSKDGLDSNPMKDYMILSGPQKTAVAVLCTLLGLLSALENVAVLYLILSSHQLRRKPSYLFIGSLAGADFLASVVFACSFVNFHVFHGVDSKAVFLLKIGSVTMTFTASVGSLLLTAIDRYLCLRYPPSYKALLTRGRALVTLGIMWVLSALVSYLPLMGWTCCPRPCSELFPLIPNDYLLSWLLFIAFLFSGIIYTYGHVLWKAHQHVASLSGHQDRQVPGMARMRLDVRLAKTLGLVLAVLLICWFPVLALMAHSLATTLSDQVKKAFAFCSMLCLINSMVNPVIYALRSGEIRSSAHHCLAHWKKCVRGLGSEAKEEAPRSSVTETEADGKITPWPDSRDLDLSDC", "experiment": "Inhibition of CB2 receptor (unknown origin) at 1 uM relative to control"}, "[8]": {"target": "Mu-type opioid receptor (Homo sapiens) (UniProt P35372)", "experiment": "Inhibition of mu opioid receptor (unknown origin) at 1 uM relative to control"}, "[9]": {"target": "Transient receptor potential cation channel subfamily V member 1 (Homo sapiens) (UniProt Q8NER1)", "experiment": "Inhibition of TRPV1 (unknown origin) at 1 uM relative to control"}, "[10]": {"target": "Muscarinic acetylcholine receptor M3 (Homo sapiens) (UniProt P20309)", "sequence (P20309 whole entry, looked up)": "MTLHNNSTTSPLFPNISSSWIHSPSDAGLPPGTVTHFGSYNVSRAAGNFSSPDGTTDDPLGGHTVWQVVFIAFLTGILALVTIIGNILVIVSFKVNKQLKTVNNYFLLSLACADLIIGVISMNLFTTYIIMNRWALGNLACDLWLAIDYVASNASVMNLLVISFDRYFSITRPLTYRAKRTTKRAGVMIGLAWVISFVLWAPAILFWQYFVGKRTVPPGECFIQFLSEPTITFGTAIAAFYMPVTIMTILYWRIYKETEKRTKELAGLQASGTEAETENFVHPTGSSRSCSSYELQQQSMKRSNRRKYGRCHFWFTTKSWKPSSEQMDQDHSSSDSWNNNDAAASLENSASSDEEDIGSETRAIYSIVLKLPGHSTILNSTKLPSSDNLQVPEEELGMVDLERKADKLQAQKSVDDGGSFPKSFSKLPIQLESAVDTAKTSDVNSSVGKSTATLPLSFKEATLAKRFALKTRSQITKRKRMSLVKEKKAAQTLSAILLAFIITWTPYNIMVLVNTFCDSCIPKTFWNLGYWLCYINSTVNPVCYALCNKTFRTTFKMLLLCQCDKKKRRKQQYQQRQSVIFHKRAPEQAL", "experiment": "Activation of muscarinic M3 receptor (unknown origin) at 1 uM relative to control"}, "[11]": {"target": "Alpha-1A adrenergic receptor (Homo sapiens) (UniProt P35348)", "experiment": "Activation of alpha 1A adrenergic receptor (unknown origin) at 1 uM relative to control"}, "[12]": {"target": "Histamine H1 receptor (Homo sapiens) (UniProt P35367)", "sequence (P35367 whole entry)": "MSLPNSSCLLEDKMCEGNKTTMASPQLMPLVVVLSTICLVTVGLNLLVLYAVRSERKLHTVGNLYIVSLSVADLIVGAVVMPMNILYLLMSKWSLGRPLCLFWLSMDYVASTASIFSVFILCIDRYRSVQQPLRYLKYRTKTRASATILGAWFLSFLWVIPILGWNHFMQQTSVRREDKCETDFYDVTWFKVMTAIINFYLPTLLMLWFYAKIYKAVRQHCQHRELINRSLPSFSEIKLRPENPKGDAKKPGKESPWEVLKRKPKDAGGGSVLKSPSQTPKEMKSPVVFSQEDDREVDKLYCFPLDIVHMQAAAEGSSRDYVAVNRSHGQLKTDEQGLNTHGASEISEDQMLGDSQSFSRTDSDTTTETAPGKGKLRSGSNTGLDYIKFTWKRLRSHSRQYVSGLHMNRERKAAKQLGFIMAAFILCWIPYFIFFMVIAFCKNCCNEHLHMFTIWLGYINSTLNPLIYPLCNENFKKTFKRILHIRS", "experiment": "Activation of Histamine H1 receptor (unknown origin) at 1 uM relative to control"}, "[13]": {"target": "Glucocorticoid receptor (Homo sapiens) (UniProt P04150)", "sequence (P04150 whole entry)": "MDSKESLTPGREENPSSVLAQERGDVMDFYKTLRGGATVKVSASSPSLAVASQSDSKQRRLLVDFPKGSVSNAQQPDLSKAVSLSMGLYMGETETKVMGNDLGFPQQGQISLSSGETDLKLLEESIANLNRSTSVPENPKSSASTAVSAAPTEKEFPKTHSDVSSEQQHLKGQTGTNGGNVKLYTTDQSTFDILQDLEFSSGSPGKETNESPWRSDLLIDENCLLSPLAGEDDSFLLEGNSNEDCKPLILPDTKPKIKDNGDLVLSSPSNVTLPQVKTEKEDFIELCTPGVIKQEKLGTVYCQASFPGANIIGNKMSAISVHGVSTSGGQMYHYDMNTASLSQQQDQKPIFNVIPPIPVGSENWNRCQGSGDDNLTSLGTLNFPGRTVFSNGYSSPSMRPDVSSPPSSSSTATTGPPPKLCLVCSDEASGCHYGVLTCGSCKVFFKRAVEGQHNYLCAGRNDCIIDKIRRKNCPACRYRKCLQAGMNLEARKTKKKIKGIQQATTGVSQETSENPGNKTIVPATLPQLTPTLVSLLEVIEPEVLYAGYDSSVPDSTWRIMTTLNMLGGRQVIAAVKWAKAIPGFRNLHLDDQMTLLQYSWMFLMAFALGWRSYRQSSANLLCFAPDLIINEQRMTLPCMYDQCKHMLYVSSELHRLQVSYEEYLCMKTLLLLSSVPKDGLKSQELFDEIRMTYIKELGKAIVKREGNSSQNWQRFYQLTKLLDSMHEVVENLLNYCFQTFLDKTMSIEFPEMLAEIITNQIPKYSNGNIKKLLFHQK", "experiment": "Activation of GR receptor (unknown origin) at 1 uM relative to control"}, "[14]": {"target": "Voltage-dependent N-type calcium channel subunit alpha-1B (Homo sapiens) (UniProt Q00975)", "experiment": "Activation of Cav2.2 (unknown origin) at 1 uM relative to control"}, "THP-1 [15]": {"test_system": "THP-1", "experiment": "Cytotoxicity against human THP-1 cells at 4 uM measured after 24 hrs by CCK-8 method", "assay_type": "functional, cell-based"}, "[16]": {"target": "NACHT, LRR and PYD domains-containing protein 3 (Mus musculus) (UniProt Q8R4B8)", "sequence (Q8R4B8 whole entry, the tested form may be a part)": "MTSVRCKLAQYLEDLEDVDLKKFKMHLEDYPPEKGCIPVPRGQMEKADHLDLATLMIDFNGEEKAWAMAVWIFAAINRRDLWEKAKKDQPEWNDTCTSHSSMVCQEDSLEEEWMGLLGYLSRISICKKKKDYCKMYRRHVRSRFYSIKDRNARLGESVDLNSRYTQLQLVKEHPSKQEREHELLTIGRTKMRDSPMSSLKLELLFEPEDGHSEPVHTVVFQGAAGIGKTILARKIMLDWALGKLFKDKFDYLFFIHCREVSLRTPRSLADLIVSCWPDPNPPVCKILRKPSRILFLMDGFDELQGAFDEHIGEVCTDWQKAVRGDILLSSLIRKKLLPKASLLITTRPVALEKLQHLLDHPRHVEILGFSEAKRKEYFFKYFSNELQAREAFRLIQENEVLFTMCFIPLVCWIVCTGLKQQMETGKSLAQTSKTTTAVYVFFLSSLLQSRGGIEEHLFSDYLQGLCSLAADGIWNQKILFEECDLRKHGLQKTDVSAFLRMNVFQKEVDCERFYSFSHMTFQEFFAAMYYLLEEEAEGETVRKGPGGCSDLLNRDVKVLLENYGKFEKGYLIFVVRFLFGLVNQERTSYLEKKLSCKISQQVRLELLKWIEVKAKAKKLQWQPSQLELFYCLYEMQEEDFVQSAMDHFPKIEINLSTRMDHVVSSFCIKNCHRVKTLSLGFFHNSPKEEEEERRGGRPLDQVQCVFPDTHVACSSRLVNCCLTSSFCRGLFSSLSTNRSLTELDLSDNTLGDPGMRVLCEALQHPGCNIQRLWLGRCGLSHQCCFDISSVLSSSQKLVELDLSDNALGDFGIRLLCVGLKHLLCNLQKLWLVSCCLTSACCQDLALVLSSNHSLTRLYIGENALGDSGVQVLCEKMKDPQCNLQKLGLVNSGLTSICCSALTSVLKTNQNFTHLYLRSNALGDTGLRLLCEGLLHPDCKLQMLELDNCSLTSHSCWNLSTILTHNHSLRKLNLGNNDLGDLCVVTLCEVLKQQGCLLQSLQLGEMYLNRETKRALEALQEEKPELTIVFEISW", "experiment": "Inhibition of NLRP3 in LPS/nigericin induced […] mouse BMDM cells assessed as inhibition of IL-18 secretion 0.25 to 1 uM preincubated with LPS for 3 hrs followed by compound addition for 40 mins and further stimulated with nigericin for 40 mins by ELISA method", "assay_type": "cell-based", "conditions": "dose 0.25-1 µM, time 80.0 min"}, "[17]": {"target": "NACHT, LRR and PYD domains-containing protein 3 (Mus musculus) (UniProt Q8R4B8)", "experiment": "Inhibition of NLRP3 inflammasome activation in LPS/Nigericin induced mouse BMDM cells assessed as effect on NLRP3 expression at 0.25 to 1 uM preincubated with LPS for 3 hrs followed by compound addition for 40 mins and further stimulated with nigericin for 40 mins by Western blot analysis", "assay_type": "cell-based", "conditions": "dose 0.25-1 µM, time 80.0 min"}, "[18]": {"target": "NACHT, LRR and PYD domains-containing protein 3 (Mus musculus) (UniProt Q8R4B8)", "experiment": "Inhibition of NLRP3 inflammasome activation in LPS/Nigericin induced mouse BMDM cells assessed as effect on ASC expression at 0.25 to 1 uM preincubated with LPS for 3 hrs followed by compound addition for 40 mins and further stimulated with nigericin for 40 mins by Western blot analysis", "assay_type": "cell-based", "conditions": "dose 0.25-1 µM, time 80.0 min"}, "[19]": {"experiment": "Cmax in male C57BL/6 mouse at 30 mg/kg, ip measured upto 1440 mins by LC-MS/MS analysis", "assay_type": "ADME, organism-based", "conditions": "in vivo"}, "[20]": {"experiment": "Drug distribution in C57BL/6 mouse colon at 30 mg/kg, ip measured after 8 hrs by LC-MS/MS analysis", "assay_type": "ADME, organism-based", "conditions": "read-out: Drug uptake"}, "[21]": {"experiment": "Drug distribution in C57BL/6 mouse plasma at 30 mg/kg, ip measured after 0.5 hrs by LC-MS/MS analysis", "assay_type": "ADME, organism-based"}, "[22]": {"experiment": "Drug distribution in C57BL/6 mouse plasma at 30 mg/kg, ip measured after 2 hrs by LC-MS/MS analysis", "assay_type": "ADME, organism-based"}, "THP-1 [23]": {"test_system": "THP-1", "experiment": "Binding affinity to NLRP3deltaLRR mutant in PMA- differentiated human THP-1 cells assessed as protection of pronase-mediated protein degradation at 100 to 1000 uM pretreated with LPS for 3 hrs followed by incubation with compound for 50 mins followed by pronase digestion for 30 mins by DARTS analysis", "assay_type": "cell-based", "conditions": "dose 100-1000 µM, time 80.0 min"}, "Mus musculus [24]": {"test_system": "Mus musculus", "experiment": "Anti-colitis activity against DSS-induced ulcerative colitis C57BL/6 mouse model assessed as reduction in DAI score at 15 to 30 mg/kg, ip administered daily and measured upto 10 days", "assay_type": "functional, organism-based", "conditions": "dose 15-30 mg/kg, time <= 10.0 day"}, "Mus musculus [25]": {"test_system": "Mus musculus", "experiment": "Anti-colitis activity against DSS-induced ulcerative colitis C57BL/6 mouse model assessed as alleviation of grave ulcer formation in colon at 15 to 30 mg/kg, ip administered daily and measured after 10 days by H and E staining based analysis", "assay_type": "functional, organism-based", "conditions": "dose 15-30 mg/kg, time 10.0 day"}, "Mus musculus [26]": {"test_system": "Mus musculus", "experiment": "Anti-colitis activity against DSS-induced ulcerative colitis C57BL/6 mouse model assessed as reduction in IL-1 beta level at 15 to 30 mg/kg, ip by ELISA method", "assay_type": "functional, organism-based", "conditions": "dose 15-30 mg/kg"}, "Mus musculus [27]": {"test_system": "Mus musculus", "experiment": "Anti-colitis activity against DSS-induced ulcerative colitis C57BL/6 mouse model assessed as suppression of caspase-1 activation at 15 to 30 mg/kg, ip by Western blot analysis", "assay_type": "functional, organism-based", "conditions": "dose 15-30 mg/kg"}, "HEK293T": {"test_system": "HEK293T", "experiment": "Inhibition of HA-NLRP3/FLAG tagged NEK7 interaction (unknown origin) transfected in HEK293T cells at 1 uM incubated for 24 hrs by Western blot analysis", "assay_type": "cell-based", "conditions": "Homo sapiens"}},
  "note": "The source made the active and inactive calls. The calls are words filed in the database; no cut-off is given here.",
  "data": [
    {"smiles": "C=C1C(=O)O[C@@H]2C[C@@]3(C)CC[C@@H](OC(=O)c4cnc(Cl)cc4Cl)C(=C)[C@@H]3C[C@H]12", "values": [
      {"measurement": "half-life", "setting": "[1]", "result": 1.09, "unit": "h"},
      {"measurement": "half-life", "setting": "[2]", "result": 3.04, "unit": "h"},
      {"measurement": "IC50", "setting": "Cytochrome P450 2C9", "result": 5.8, "unit": "µM"},
      {"measurement": "IC50", "setting": "Cytochrome P450 3A4", "result": "> 100", "unit": "µM"},
      {"measurement": "inhibition", "setting": "[3]", "result": "< 50", "unit": "%"},
      {"measurement": "inhibition", "setting": "[4]", "result": "< 50", "unit": "%"},
      {"measurement": "inhibition", "setting": "[5]", "result": "< 50", "unit": "%"},
      {"measurement": "inhibition", "setting": "[6]", "result": "< 50", "unit": "%"},
      {"measurement": "inhibition", "setting": "[7]", "result": "< 50", "unit": "%"},
      {"measurement": "inhibition", "setting": "[8]", "result": "< 50", "unit": "%"},
      {"measurement": "inhibition", "setting": "[9]", "result": "< 50", "unit": "%"},
      {"measurement": "Activity", "setting": "[10]", "result": "< 50", "unit": "%"},
      {"measurement": "Activity", "setting": "[11]", "result": "< 50", "unit": "%"},
      {"measurement": "Activity", "setting": "[12]", "result": "< 50", "unit": "%"},
      {"measurement": "Activity", "setting": "[13]", "result": "< 50", "unit": "%"},
      {"measurement": "Activity", "setting": "[14]", "result": "< 50", "unit": "%"},
      {"measurement": "Activity", "setting": "THP-1 [15]", "result": "Active"},
      {"measurement": "inhibition", "setting": "[16]", "result": "Active"},
      {"measurement": "inhibition", "setting": "[17]", "result": "inactive"},
      {"measurement": "inhibition", "setting": "[18]", "result": "inactive"},
      {"measurement": "Cmax", "setting": "[19]", "result": 1.57, "unit": "ng/mL"},
      {"measurement": "concentration at 8 h", "setting": "[20]", "result": 80.2, "unit": "ng/g"},
      {"measurement": "concentration at 0.5 h", "setting": "[21]", "result": 0.22, "unit": "ng/mL"},
      {"measurement": "concentration at 2 h", "setting": "[22]", "result": 1.97, "unit": "ng/mL"},
      {"measurement": "Activity", "setting": "THP-1 [23]", "result": "Active"},
      {"measurement": "Activity", "setting": "Mus musculus [24]", "result": "Active"},
      {"measurement": "Activity", "setting": "Mus musculus [25]", "result": "Active"},
      {"measurement": "Activity", "setting": "Mus musculus [26]", "result": "Active"},
      {"measurement": "Activity", "setting": "Mus musculus [27]", "result": "Active"},
      {"measurement": "inhibition", "setting": "HEK293T", "result": "Active"}
    ]}
  ]
}
